“Also recorded” adds a separate entry of the source.
Experiments:
white blood cells = test: White blood cell counts of irradiated mice; type: in vivo, C3H/HEJ mice
Description: FIG. 4. ON 01210.Na protects the bone marrow of irradiated mice. A. Mice were injected with 500 mg/kg of ON 01210.Na formulated in 1% Polysorbate 80/K-phosphate buffer or vehicle alone by sc injections minus 24 hrs and minus 15 minutes before 5.5 Gy of whole body ionizing radiation treatment. Whole blood was collected on the indicted days and WBC counts were performed following RBC lysis. The data is plotted as the average of three mice per group +/−SEM (N:3×3=9 plates). B. Pictures of representative plates. […] C. White blood cell counts. Whole blood was collected on the indicted days and WBC counts were performed following RBC lysis. The data is plotted as the average of 3 mice per group±SEM (N=3).
A. Mice were injected with 500 mg/kg of ON 01210.Na formulated in 1% Polysorbate 80/K-phosphate buffer or vehicle alone by sc injections minus 24 hrs and minus 15 minutes before 5.5 Gy of whole body ionizing radiation treatment. Whole blood was collected on the indicted days and WBC counts were performed following RBC lysis. The data is plotted as the average of three mice per group+/−SEM (N:3×3=9 plates). […]
In addition to examining the ability of ON 01210.Na to protect bone marrow cells, the protection of peripheral white blood cells was also examined. Whole blood was collected and the total number of white blood cells was determined at various times after radiation exposure.

[1] = tested on: mice exposed to lethal doses of whole body ionizing radiation; test: In vivo survival studies in mice after lethal whole body radiation (30-day survival model)
Description: Since survival of animals after radiation exposure depends largely on the protection of the hematopoietic system, the effect of ON 01210.Na treatment on hematopoietic cell survival was investigated using various schedules before radiation exposure. The radioprotection of hematopoietic cells by ON 01210.Na was studied in an in vivo assay using a sub lethal dose of radiation. C3H/HEJ mice were treated with ON 01210.Na following various schedules in order to determine the optimal dose and schedule of ON 01210.Na for maximum protection of the hematopoietic system in mice.
In vivo survival studies in mice were designed to explore the effects of dose and schedule on survival, based on the well-established 30-day survival model, establish a dose reduction factor (DRF) for ON 01210.Na, compare two different formulations (suspension vs. solution) of ON 01210.Na; and show protection and recovery benefits of ON 01210.Na to the hematopoietic system and gastrointestinal tract of treated mice.
Two dose reduction factor (DRF) studies determined that the DRF for ON 01210.Na was 1.14 to 1.16.

[2] = tested on: New Zealand white rabbits; test: Survival studies in rabbits after lethal doses of radiation; type: in vivo; conditions: 120 mg/kg at 24 hours and 15 minutes before lethal doses of radiation
Description: (§1) Unlike in the mouse studies, clear evidence of improved repopulation of various hematologic cell lineages was not evident in these preliminary studies. Both solution and suspension formulations were tested.

[3] = tested on: white blood cells, platelets, hematocrit and hemoglobin levels; test: Hematology in irradiated rabbits; type: in vivo, New Zealand white rabbits
Description: as §1

[4] = tested on: human umbilical vein endothelial cells; test: In vitro clonogenic survival assay, endothelial cells; type: cell-based
[5] = Free radical scavenger / antioxidant activity
CYP450 2C9 = CYP450 2C9 (Homo sapiens, UniProt P11712); type: in vitro ADME
Description: Additional biochemical studies were performed to screen for potential secondary or non-specific activities. ON 01210.Na was subjected to in vitro primary screening across a broad panel of 67 radioligand receptor binding assays and five cytochrome P450 enzymes: 1A2, 2C9, 2C19, 3A4, and 2D6. […] Only one cytochrome assay, CYP450 2C9, in which the activity was […] 98%, yielded a response that was considered significant. Thus, as a preliminary screen for safety and selectivity profiling, no targets were identified.

human bone marrow cells = test: In vitro radiation protection of human bone marrow cells (methocult CFU); type: cell-based; conditions: 3 hour treatment, no radiation, all concentrations tested; sodium salt

Sequence of CYP450 2C9 (P11712 whole entry): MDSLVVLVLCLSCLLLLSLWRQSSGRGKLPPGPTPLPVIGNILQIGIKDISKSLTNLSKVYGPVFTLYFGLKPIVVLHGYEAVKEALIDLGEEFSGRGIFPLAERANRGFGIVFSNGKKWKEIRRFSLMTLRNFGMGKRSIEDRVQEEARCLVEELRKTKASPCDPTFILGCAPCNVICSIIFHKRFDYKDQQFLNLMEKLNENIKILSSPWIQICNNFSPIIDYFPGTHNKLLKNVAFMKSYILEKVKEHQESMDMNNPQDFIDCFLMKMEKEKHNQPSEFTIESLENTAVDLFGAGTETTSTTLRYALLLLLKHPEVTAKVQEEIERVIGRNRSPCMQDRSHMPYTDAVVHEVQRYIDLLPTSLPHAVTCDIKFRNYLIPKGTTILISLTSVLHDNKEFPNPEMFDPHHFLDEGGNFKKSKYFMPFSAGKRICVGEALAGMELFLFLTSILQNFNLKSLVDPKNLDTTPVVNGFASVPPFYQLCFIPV

SMILES: O=C([O-])c1ccc(/C=C/S(=O)(=O)Cc2ccc(Cl)cc2)cc1.[Na+] [ON 01210.Na, E-4-Carboxystyryl-4-chlorobenzylsulfone sodium salt]
- protection of white blood cells from radiation exposure (white blood cells; 500 mg/kg sc -24 h and -15 min before 5.5 Gy IR, sodium salt): significantly protected
- recovery of white cell numbers (white blood cells; by 18 days): more rapid recovery
- protection against radiation lethality ([1]; 50 mg/kg to 500 mg/kg, p<0.05 vs. vehicle): dose-dependent protection
- protection from LD50/30 whole body radiation dose ([1]; 500 mg/kg pretreatment): completely and reproducibly protected
- mice protected (survival) ([1]; double injection, minus 24 hour and minus 15 minutes, prior to lethal ionizing radiation): 100%
- efficacy of solution formulation ([1]; same dosing regimen, solution formulation vs suspension): similarly effective
- mice protected (survival) ([1]; single injection at minus 15 minutes prior to lethal ionizing radiation): 100%
- survival relative to vehicle-treated animals [2]: survival benefit
- white blood cells, platelets, hematocrit and hemoglobin levels ([3]; 120 mg/kg at 24 hours and 15 minutes before lethal radiation): general protective trend
- improved repopulation of hematologic cell lineages ([3]; preliminary studies): not evident
- protection from radiation exposure (clonogenic survival) [4]: protected
- activity as a free radical scavenger or antioxidant [5]: did not exhibit any significant activity
- CYP450 2C9 activity, stimulation (CYP450 2C9): 98%
- toxicity of treatment without radiation (human bone marrow cells): non-toxic at all concentrations tested; also recorded: completely safe

From patent publication US20110250184A1, “METHODS FOR DETERMINING EFFICACY OF A THERAPEUTIC REGIMEN AGAINST DELETERIOUS EFFECTS OF CYTOTOXIC AGENTS IN HUMAN” (priority 2008, published 2011)
